# Key:
# [1] = test system: Staphylococcus aureus (SAUR 9213); test: MIC by standard agar dilution method; format: cell-based; details: Mueller Hinton agar, incubated overnight at 35° C., read-out: MIC
# How it was run: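 Serial 2-fold compound dilutions in Mueller Hinton agar, spot-inoculated with approximately 10^4 to 10^5 cells from a 1:20-diluted 0.5 McFarland suspension in TSB. Incubated overnight at 35 °C; MIC (μg/ml) is the lowest concentration preventing visible growth.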
MIC [1],melting point,SMILES
0.5 µg/mL,249 to 251 °C,"NC(=O)[C@H]1CN(c2ccc(C3=NNC(=O)CS3)c(F)c2)C(=O)O1 [Example 64, (5R)-3-[3-Fluoro-4-(5-oxo-5,6-dihydro-4H-[1,3,4]thiadiazin-2-yl)phenyl]-2-oxo-5-oxazolidinecarboxamide]"
1 µg/mL,260 to 262 °C,"CN1C(=O)CCc2cc(N3C[C@H](C(N)=O)OC3=O)cc(F)c21 [Example 82, (5R)-3-(8-Fluoro-1-methyl-2-oxo-1,2,3,4-tetrahydroquinolin-6-yl)-2-oxo-5-oxazolidinecarboxamide]"
2 µg/mL,264 to 265 °C,"CNC(=O)[C@H]1CN(c2cc(F)c3c(c2)CCC(=O)N3C)C(=O)O1 [Example 83, (5R)-N-Methyl-3-(8-fluoro-1-methyl-2-oxo-1,2,3,4-tetrahydroquinolin-6-yl)-2-oxo-5-oxazolidinecarboxamide]"

# Source: patent publication US7645781B2, “N-aryl-2-oxazolidinone-5-carboxamides and their derivatives” (Pfizer Inc, priority 2002, dated 2010)
